Reference: article PMC3878761, “Interactions of peptide triazole thiols with Env gp120 induce irreversible breakdown and inactivation of HIV-1 virions” (Retrovirology, 2013)
Entries after “also recorded” stand apart in the source; their conditions may differ. Read-outs that look alike come from different tables or passages of the source.

Legend:
[1] = system: gp41 of HIV-1 BaL pseudovirus (4E10 epitope); assay: exposure of gp41 MPER epitope, 4E10 ELISA; details: fixed BaL pseudovirions, 30 min at 37°C (dose) or 1 μM (time), n = 3
Procedure: (§1) We also measured the presence of gp41 epitopes for human mAb’s 2 F5 and 4E10 using an altered ELISA detection method to minimize virus particle disruption. […] Virus fractions were collected and fixed with equal volume of 0.1% paraformaldehyde for 30 minutes at 4°C. The treated virus fractions were spun at 16,000 X g for 2 hours at 4°C in an Eppendorf table top centrifuge. Following PBS wash, fixed virions were coated on an ELISA plate at 50 μl per well and incubated overnight at 4°C. The plate was blocked with 3% BSA, and ELISA was used to detect gp41 epitopes with human gp41 antibodies 2 F5 and 4E10 followed by addition of anti-human IgG HRP secondary antibody.

HIV-1 YU2 gp120 = target: T1, HIV-1 YU2 gp120 (Human immunodeficiency virus type 1 group M subtype B, UniProt P35961); assay: SPR direct binding to immobilized YU2 gp120; details: immobilized YU2 gp120, PBS + 0.005% Tween 20, pH 7.2, 25°C
T1 construct: made in house; host or cells: 293F cells
Procedure: (Additional file 1: Figure S2). […] Direct binding of the peptide triazole to sensor chip immobilized HIV-1 YU2 gp120 was measured as previously described using Surface Plasmon Resonance (SPR) with a Biacore 3000 optical biosensor (GE Healthcare). […] The cell viability was measured using the tetrazolium salt premix reagent, WST-1 from Takara Bio Inc. following the manufacturer’s protocol. The formazan product was measured using the microplate reader at absorbance wavelength 460 nm (Molecular Devices).

[2] = system: fully infectious HIV-1 BaL virions; details: read-out: p24 release IC50 (*, fully infectious), 30 min at 37°C, p24 capture ELISA, ± SD
Procedure: (§2) The replication competent virions were assayed for peptide triazole-induced inhibition of infection, gp120 shedding and p24 release in a BSL-2 facility. Gradient purification of the viruses and p24 release assays were performed as with pseudoviruses (described in Materials and Methods above). Cell infection by virus and its inhibition by peptide triazoles were tested using a modified version of a previously reported p24 ELISA assay [60]. The p24 release assays as well as detection of gp120 shedding were conducted as with the BaL pseudovirions (described in Materials and Methods above).
(§3) Virions were purified using 6-20% iodixanol gradient and p24 content measured using ELISA. […] HOS CD4^+ve CCR5^+ve cells seeded, at 8,000 cells per well in a 96 well plate, were incubated for 24 hours followed by addition of pre-incubated inhibitor-virus mixture. […] Further, the peptide triazole and cell-free virus were pre-incubated for 30 min at 37°C followed by spinning for 2 hours at 13,600 rpm in a table top centrifuge (Eppendorf) at 4°C. Supernatant was separated and p24 content determined using the p24 capture ELISA (explained in the main Materials and Methods section) and gp120 using western blot analysis (explained in the Supplementary Text above).

[3] = system: pseudotype virions bearing the HIV-1 BaL envelope glycoprotein; details: determined by release of the p24 capsid protein; cited from earlier work
Excerpt: Since gp120 is the first viral protein to interact with the host cell, it is an attractive target for inhibiting infection. […] This inhibition is mediated by binding to a region of gp120 that partially overlaps the CD4 binding site.

HIV-1 BaL pseudovirus [4] = assay: p24 release from HIV-1 BaL pseudovirus (ELISA)
[5] = system: R5-tropic and X4-tropic HIV-1; design: method as in 2 sources, one per row (each row's own in cited_ref): ref 7-9, 12 = [7]; PMID 20518583; doi:10.2165/11203940-000000000-00000; Perry CM Maraviroc: a review of its use in the management of CCR5-tropic HIV-1 infection Drugs 2010 10 9 1189 1213 10.2165/11203940-000000000-00000 20518583 || [8]; PMID 23541872; doi:10.1016/j.antiviral.2013.03.017; Haqqani AA Tilton JC Entry inhibitors and their use in the treatment of HIV-1 infection Antiviral Res 2013 10 2 158 170 10.1016/j.antiviral.2013.03.017 23541872 || [9]; PMID 23290628; doi:10.1016/j.coviro.2012.12.002; Henrich TJ Kuritzkes DR HIV-1 entry inhibitors: recent development and clinical use Curr Opin Virol 2013 10 1 51 57 10.1016/j.coviro.2012.12.002 23290628 PMC4213740 || [12]; PMID 17933722; Emmelkamp JM Rockstroh JK CCR5 antagonists: comparison of efficacy, side effects, pharmacokinetics and interactions–review of the literature Eur J Med Res 2007 10 9 409 417 17933722 ||| ref 34 = [34]; PMID 23470147; doi:10.1021/bi400166b; Emileh A Tuzer F Yeh H Umashankara M Moreira DR Lalonde JM Bewley CA Abrams CF Chaiken IM A model of peptide triazole entry inhibitor binding to HIV-1 gp120 and the mechanism of bridging sheet disrupt; details: cited from earlier work
[6] = system: gp41 of HIV-1 BaL pseudovirus (98–6 epitope); assay: gp41 content of treated virions, mAb 98-6 western blot; details: western blot mAb 98–6, BaL pseudovirus
HIV-1 BaL pseudovirus [7] = assay: TEM morphology of treated virions; details: KR13 1 μM, 24 hours
[8] = system: CHO-K1 cells expressing gp160; assay: gp120 shedding and lysis, CHO-K1 cells expressing gp160; assay type: cell-based; details: unpublished results, manuscript in preparation
[9] = system: gp41 of HIV-1 BaL pseudovirus (2 F5 epitope); assay: exposure of gp41 MPER epitope, 2 F5 ELISA; details: fixed BaL pseudovirions, 30 min at 37°C (dose) or 1 μM (time), n = 3
Procedure: as §1

HIV-1 BaL pseudovirus [10] = assay: gp120 shedding from HIV-1 BaL pseudovirus (western blot)
[11] = system: fully infectious HIV-1 BaL virions; assay: gp120 shedding from fully infectious HIV-1 BaL; details: read-out: gp120 shedding IC50 (*, fully infectious), 30 min at 37°C, western blot, ± SD
Procedure: as §2, §3

HIV-1 BaL pseudovirus [12] = system: HIV-1 BaL pseudovirus
[13] = KR13 1 μM or HNG156 100 μM, 1 min to 24 hours, 37°C
[14] = KR13 (1 μM), 30 minutes exposure, n = 3

CC[C@H](C)[C@H](NC(=O)[C@@H](N)CCCNC(=N)N)C(=O)N[C@@H](CC(N)=O)C(=O)N[C@@H](CC(N)=O)C(=O)N[C@H](C(=O)N1C[C@@H](n2cc([C]34[CH]5[CH]6[CH]7[CH]3[Fe]6754389%10[CH]4[CH]3[CH]8[CH]9[CH]4%10)nn2)C[C@H]1C(=O)N[C@@H](Cc1c[nH]c2ccccc12)C(=O)N[C@@H](CO)C(=O)N[C@@H](CCC(=O)O)C(=O)N[C@@H](C)C(=O)N[C@@H](CCSC)C(=O)N[C@@H](CCSC)C(=O)NCCC(=O)N[C@@H](CCC(N)=O)C(=O)NCCC(=O)N[C@@H](CS)C(N)=O)[C@@H](C)CC (stereo partly drawn) [KR13]
reactivity to 4E10 [1]: reactivity to 4E10 and 2 F5 increased in a dose-dependent manner; also recorded: time dependent exposure of the MPER epitope | SPR direct binding to gp120, in words (HIV-1 YU2 gp120): proportionally increasing binding responses to immobilized gp120 at increasing concentrations of KR13 | IC50 [2]: 4400 nM | lysis of BaL pseudotype virions [3]: induced lysis of pseudotype virions bearing the HIV-1 BaL envelope glycoprotein | kinetics of p24 release (HIV-1 BaL pseudovirus [4]; [13]): delayed kinetically | loss of p24 (HIV-1 BaL pseudovirus [4]; [14]): 10% | reduction in virion p24 content (HIV-1 BaL pseudovirus [4]; KR13 (1 μM), 360 minutes): 50% | IC50 (HIV-1 BaL pseudovirus [4]; read-out: p24 release IC50, 30 minutes, gradient fractionation, capture ELISA, 1% triton X = 100%, ± SD, n > 3): 32 ± 10 nM | inhibition of R5- and X4-tropic viruses [5]: potent inhibitor of R5- and X4-tropic viruses | gp41 retention / 98–6 detection [6]: gp41 remained associated with virions; also recorded: gp41 was detected only weakly by 98–6 in either soluble or virion-associated fractions | core morphology of virions (HIV-1 BaL pseudovirus [7]): substantially different, with a shriveled and disordered appearance | reduction of virion diameter (HIV-1 BaL pseudovirus [7]; 37°C, n = 16): > 50% | gp120 shedding, CHO-K1 cells expressing gp160 [8]: caused gp120 shedding | lysis of CHO-K1 cells expressing gp160 [8]: did not lyse the cells | reactivity to 2 F5 [9]: reactivity to 4E10 and 2 F5 increased in a dose-dependent manner; also recorded: time dependent exposure of the MPER epitope | gp120 shedding, in words (HIV-1 BaL pseudovirus [10]): caused gp120 shedding | loss of gp120 (HIV-1 BaL pseudovirus [10]; [14]): 65-70% | IC50 [11]: 1200 nM | kinetics of infectivity inhibition versus gp120 shedding (HIV-1 BaL pseudovirus [12]; [13]): infectivity inhibition and gp120 shedding had similar kinetics | loss of infectivity (HIV-1 BaL pseudovirus [12]; [14]): 65-70% | inhibition of infection, in words (HIV-1 BaL pseudovirus [12]; single round infection assay): inhibited infection
